Like-named read-outs stand apart in the source and are kept apart here. Values belong to the compound of their own block, whether it stands above or below them.
Assays:
murine sEH = biological target: T1, murine sEH (Mus musculus, UniProt P34914); assay: Fluorescent sEH inhibition assay
T1 sequence (P34914 1-554): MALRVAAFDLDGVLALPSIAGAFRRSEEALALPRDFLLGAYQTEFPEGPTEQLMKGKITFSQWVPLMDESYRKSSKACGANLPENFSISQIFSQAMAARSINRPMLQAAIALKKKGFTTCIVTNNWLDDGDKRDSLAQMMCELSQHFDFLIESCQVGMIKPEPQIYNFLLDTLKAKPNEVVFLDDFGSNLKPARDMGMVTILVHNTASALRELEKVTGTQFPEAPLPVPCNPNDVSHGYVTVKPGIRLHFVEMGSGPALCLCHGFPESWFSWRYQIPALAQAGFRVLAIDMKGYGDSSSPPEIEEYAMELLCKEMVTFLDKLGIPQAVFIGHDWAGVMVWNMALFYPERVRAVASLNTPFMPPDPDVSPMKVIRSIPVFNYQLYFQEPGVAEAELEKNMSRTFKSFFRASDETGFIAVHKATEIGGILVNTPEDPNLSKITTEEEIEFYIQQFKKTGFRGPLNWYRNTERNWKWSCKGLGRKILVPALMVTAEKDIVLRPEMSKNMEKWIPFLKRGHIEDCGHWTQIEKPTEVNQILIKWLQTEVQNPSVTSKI

human sEH [1] = biological target: T2, human sEH (Homo sapiens, UniProt P34913); assay: biochemical; format: biochemical
T2 sequence (P34913 1-555): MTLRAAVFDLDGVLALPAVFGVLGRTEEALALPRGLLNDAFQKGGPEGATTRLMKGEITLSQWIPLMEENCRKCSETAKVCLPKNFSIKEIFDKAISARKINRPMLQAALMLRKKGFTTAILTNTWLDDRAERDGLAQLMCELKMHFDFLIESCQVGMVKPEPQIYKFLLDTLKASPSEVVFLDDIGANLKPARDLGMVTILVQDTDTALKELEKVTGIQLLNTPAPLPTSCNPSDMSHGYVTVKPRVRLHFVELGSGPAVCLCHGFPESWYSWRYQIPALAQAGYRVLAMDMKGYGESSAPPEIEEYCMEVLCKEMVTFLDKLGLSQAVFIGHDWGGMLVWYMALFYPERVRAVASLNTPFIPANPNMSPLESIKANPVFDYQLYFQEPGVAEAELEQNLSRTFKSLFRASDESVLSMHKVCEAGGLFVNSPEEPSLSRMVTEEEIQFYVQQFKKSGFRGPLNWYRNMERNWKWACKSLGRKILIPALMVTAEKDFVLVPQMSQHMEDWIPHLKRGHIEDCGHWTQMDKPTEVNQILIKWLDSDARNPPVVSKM

human sEH [2] = biological target: T2, human sEH; format: biochemical; details: read-out: Inhibition of the Human sEH KI; pH 7.4
[3] = system: ACHN and A498 human RCC cells; assay: MTT assay of cell growth; format: cell-based; details: 10 μM, 48 h
[4] = system: caspase-1 and caspase-3 activity in ACHN and A498 cells; assay: Caspase assay; format: cell-based, human; details: 10 μM, 48 h
[5] = system: ERK phosphorylation in ACHN and A498 cells; assay: Immunoblot of ERK phosphorylation after PDGF stimulation; format: cell-based, human; details: two RCC cell lines (ACHN, A498), 10 μM, 1 h, then PDGF 10 ng/ml 15 min
[6] = mice, sorafenib tosylate 5 mg/kg oral
[7] = man, phase I study, cited from earlier work
in vivo = details: male, Swiss-Webster, mouse, po, 5 mg/kg

IC50 (murine sEH): 27 µM
Compound: Cc1nc(Nc2ncc(C(=O)Nc3c(C)cccc3Cl)s2)cc(N2CCN(CCO)CC2)n1 [Dasatinib]

Compound: CS(=O)(=O)N1CCC(NC(=O)Nc2ccc(OC(F)(F)F)cc2)CC1 [TUPS]
IC50 (human sEH [1]; read-out: Inhibition of the Human sEH IC50, pH 7): 0.003 ± 0.001 µM
Ki (human sEH [2]): 0.014 ± 0.004 µM

IC50 (human sEH [1]): 55 µM
Inhibition of the human sEH (in words) (human sEH [1]; fluorescent assay): not potent inhibitors of the human sEH
Compound: CCN(CC)CCNC(=O)c1c(C)[nH]c(/C=C2\C(=O)Nc3ccc(F)cc32)c1C [Sunitinib]

Compound: CNC(=O)c1cc(Oc2ccc(NC(=O)Nc3ccc(Cl)c(C(F)(F)F)c3)cc2)ccn1 [Sorafenib]
Decrease of cell growth as compared to serum-stimulated cells [3]: 65-70%
Apoptosis: caspase-1 and caspase-3 activity [4]: activation of caspase-1 and caspase-3 activity
ERK phosphorylation [5]: attenuate ERK phosphorylation
Blood level after 24 h [6]: no sorafenib could be detected
Cmax ([7]; similar doses): > 1500 nM
AUC0-12 [7]: more than 13000 nM h
Elimination half life [7]: more than 20 hours
Tmax [7]: more than 2 h
AUC(0-t) (in vivo): 0.63 µM·h
Cmax (in vivo): ~120 nM
half-life (in vivo): 2.6 h

Compound: COc1cccc(-c2cc(=O)c3ccccc3o2)c1N [PD98059]
ERK phosphorylation [5]: attenuate ERK phosphorylation

— paper PMC2728155 (Molecular cancer therapeutics, 2009)
